Test results reported in patent US20230381196A1, “COMPOSITIONS COMPRISING BISFLUOROALKYL-1,4-BENZODIAZEPINONE COMPOUNDS FOR TREATING ADENOID CYSTIC CARCINOMA” (AYALA PHARMACEUTICALS INC., priority 2020, published 2023).

Columns and labels:
[1] = Phase 2 trial: treatment-related adverse events; assay type: in vivo, human; conditions: 4 mg IV once weekly
Protocol: (§1) Starting on Cycle 1, Day 1, eligible subjects enrolled in the study received Compound (1), 4 mg intravenously (IV) weekly (qwk), on Days 1, 8, 15, and 22 of each 28-day cycle until disease progression, unacceptable toxicity, or consent withdrawal. Paired tumor biopsies were collected at screening (fresh or archival within 5 years) and upon confirmation of disease progression (provided medically safe and not contraindicated). Samples were sent to a central vendor for NGS analysis. Formalin-fixed paraffin embedded (FFPE) slides were evaluated by IHC for NICDI stain.
(§2) During the treatment period, subjects underwent radiographic assessments every 8 weeks (±3 days) for review by Independent Central Review (ICR) as well as by the Investigator. Other assessments performed included safety exploratory biomarkers.
(§3) Compound (1) is a potent and selective inhibitor of gamma secretase-mediated Notch signaling. Compound (1) was administered IV at the dose of 4 mg every 7 days (1 day; QW) over 28-day cycles until disease progression, unacceptable toxicity, or consent withdrawal. Compound (1) injection was developed as a single-use sterile solution (1.2 mg/mL; […]) for IV administration in clinical studies; each vial contained 5 mL (equivalent of 6 mg per vial). It was formulated as a sterile concentrate containing Cremophor and ethanol and was diluted with 0.9% Sodium Chloride injection, USP (normal saline) or 5% Dextrose Injection, USP (D5W) to concentrations between 0.01 mg/mL and 0.06 mg/mL. In order to reduce the risk of infusion reactions caused by Cremophor, premedication with H1- and H2-blockers (diphenhydramine and ranitidine or equivalents) or dexamethasone (8-10 mg) were administered.
Subjects selected for a global open-label, multicenter study with ACC and Notch mutations had disease progression or were newly diagnosed with metastatic disease (FIG. 1). Based on the safety and activity found in the initial once weekly cohort treated intravenously with 4 mg of Compound (1), the study was amended to add a cohort of 42 additional subjects treated intravenously with 6 mg of Compound (1) once weekly. The primary endpoint is objective response rate (ORR) by investigator. As of Jul. 30, 2020, 45 subjects had been treated in the 4 mg cohort and these were evaluable for safety analysis. Of these 45 subjects, 40 had scans available at week 8 (Table 2), and the scans were evaluable for efficacy assessment. Sixty percent of subjects had prior chemotherapy, and 95% prior radiotherapy (Table 2). Lung and bone were the most common sites of recurrence (Table 2).

[2] = system: Notch4; experiment: Inhibition of Constitutive Notch Signaling; assay type: cell-based
[3] = system: recurrent or metastatic ACC with Notch-activating mutations; experiment: Phase 2 trial of Compound (1) in ACC with Notch-activating mutations: response; assay type: in vivo, human; conditions: 4 mg IV once weekly
Description: FIG. 1. Schema and Baseline Characteristics. Subjects enrolled in the Phase 2 Clinical Trial had (1) Recurrent/metastatic (R/M) adenoid cystic carcinoma (ACC); (2) Notch-activating mutations; (3) Disease progression within prior 6 months, and (4) Eastern Cooperative Oncology Group (ECOG) score <2 (Fully active; no performance restrictions. 1. Strenuous physical activity restricted; fully ambulatory and able to carry out light work. 2. Capable of all self-care but unable to carry out any work activities). Cohort 1 was administered Compound (1) QW at a dose of 4 mg (n=45), and Cohort 2 will be administered Compound (1) QW at a dose of 6 mg (n=42). The primary endpoint is ORR per RECIST v1.1 or modified MDA Bone Response Criteria, by Investigator. Secondary endpoints include Duration of Response (DoR), Progression-Free Survival (PFS), Overall Survival (OS), Safety, and PharmacoKinetics (PKs). The study was conducted in North America, Europe and Israel. aData cutoff: Jul. 30, 2020. ^bSubjects may select more than one category. MDA, M D Anderson.
FIG. 2. Best Overall Responses by Investigator Review (n=40)^a. Subjects were administered 4 mg Compound (1) once per week. The percent change in the tumor diameter is presented for individual subjects. Subjects with Partial Response (PR) are marked in yellow; Stable disease (SD) in dark blue; Progressive Disease (PD) in gray; and Not Evaluable (NE) in black. *confirmed responses.
A Phase 2, Simon 2-Stage optimal design, non-comparative, open-label, single-arm, multicenter study of Compound (1) was conducted in subjects with recurrent or metastatic (RIM) ACC (bone-exclusive disease allowed) who harbor Notchl, Notch2, Notch3, or Notch4 activating mutations (Notch1-4′ nn. Subjects with disease progression ≤6 months of enrollment or newly diagnosed metastatic disease were allowed.
Subjects with known activating Notch mutations, per NGS test results gave their informed consent and underwent screening assessments to determine study eligibility over a 28-day screening period. Available mutation status from prior tests with any commercially available or locally developed NGS assay were acceptable. Any newly characterized mutation (such as tandem duplication, variant allele frequency etc.), was evaluated with the sponsor on a case-by-case basis.
as §1, §2
as §3, with “In order to reduce the risk of infusion reactions caused by Cremophor, premedication with H1- and H2-blockers (diphenhydramine and ranitidine or equivalents) or dexamethasone (8-10 mg) were administered.” left out

## CN1C(=O)[C@@H](NC(=O)[C@H](CCC(F)(F)F)[C@H](CCC(F)(F)F)C(N)=O)N=C(c2ccccc2)c2ccccc21 [Compound (1), (2R,3S)—N-((3S)-1-methyl-2-oxo-5-phenyl-2,3-dihydro-1H-1,4-benzodiazepin-3-yl)-2,3-bi s(3,3,3-trifluoropropyl)succinamide]
[1]
  cases of diarrhea that were Grade 1/2: 25/27
  subjects who died due to treatment-related pneumonia: one
  subjects with a Grade 4 treatment-related adverse event of hyponatremia: one
  tolerability in subjects: generally well tolerated
  treatment-related diarrhea: 60%
[1]; N = 45
  Any TRAE, Grade 3/4: 9 (20) n (%)
  Cough TRAE, Any Grade: 12 (27) n (%)
  Cough TRAE, Grade 3/4: 0 n (%)
  Decreased appetite TRAE, Any Grade: 7 (16) n (%)
  Decreased appetite TRAE, Grade 3/4: 1 (2) n (%)
  Diarrhea TRAE, Any Grade: 27 (60) n (%)
  Diarrhea TRAE, Grade 3/4: 2 (4) n (%)
  Dysgeusia TRAE, Any Grade: 7 (16) n (%)
  Dysgeusia TRAE, Grade 3/4: 0 n (%)
  Epistaxis TRAE, Any Grade: 9 (20) n (%)
  Epistaxis TRAE, Grade 3/4: 0 n (%)
  Fatigue TRAE, Any Grade: 23 (51) n (%)
  Fatigue TRAE, Grade 3/4: 2 (4) n (%)
  Hypophosphatemia TRAE, Any Grade: 19 (42) n (%)
  Hypophosphatemia TRAE, Grade 3/4: 2 (4) n (%)
  Nausea TRAE, Any Grade: 22 (49) n (%)
  Nausea TRAE, Grade 3/4: 1 (2) n (%)
  Rash maculo-papular TRAE, Any Grade: 8 (18) n (%)
  Rash maculo-papular TRAE, Grade 3/4: 0 n (%)
  Vomiting TRAE, Any Grade: 12 (27) n (%)
  Vomiting TRAE, Grade 3/4: 0 n (%)
[1]; nine subjects
  subjects with treatment-related adverse events of Grade 3/4: 20%
[1]; safety population N = 45
  Any TRAE, Any Grade: 45 (100) n (%)
[2]
  IC50: 2.9 nM
[3]
  partial responses achieved by week 16: 5 out of 6
[3]; 16 out of 40
  subjects in the study for at least 24 weeks or still in the study not yet having reached 24 weeks: 40%
[3]; by investigator, n=40
  Missing/NE, best overall response (unconfirmed): 3% (1)
  PD, best overall response (unconfirmed): 30% (12)
  PR, best overall response (unconfirmed): 15% (6)
  overall response rate: 15%
[3]; 4 subjects who achieved partial response
  radiographic scans, baseline vs beginning of Cycle 3 (Week 8): tumor shrinkage
